From patent publication US9102648B1, “Bioavailable diacylhydrazine ligands for modulating the expression of exogenous genes via an ecdysone receptor complex” (Intrexon Corporation, priority 2003, dated 2015)

System: mutated ecdysone receptor-based gene switch
Assay: In vivo SEAP induction, ligand by IP injection
Set-up: species or system C57BL/6 mouse
Conditions: for Secreted Alkaline Phosphatase (percentage of GS ™-E ligand induction) Day 2 / Secreted Alkaline Phosphatase (percentage of GS ™-E ligand induction) Day 3 / Secreted Alkaline Phosphatase (percentage of GS ™-E ligand induction) Day 11: mouse serum; for Secreted Alkaline Phosphatase (percentage of GS ™-E ligand induction) Day 2: IP 2.6 μmol ligand 3 days after electroporation, day 2 after ligand; for Secreted Alkaline Phosphatase (percentage of GS ™-E ligand induction) Day 3 / Secreted Alkaline Phosphatase (percentage of GS ™-E ligand induction) Day 11: IP 2.6 μmol ligand; for Secreted Alkaline Phosphatase (percentage of GS ™-E ligand induction) Day 3: day 3 after ligand; for Secreted Alkaline Phosphatase (percentage of GS ™-E ligand induction) Day 11: day 11 after ligand; for Secreted Alkaline Phosphatase Day 2 / Secreted Alkaline Phosphatase Day 3 / Secreted Alkaline Phosphatase Day 7: IP 26 nmol ligand
Procedure: Applicants' ligands are useful in various applications including gene therapy, expression of proteins of interest in host cells, production of transgenic organisms, and cell-based assays. In vivo induction of a reporter enzyme with various ligands of the present invention was evaluated in a C57BL/6 mouse model system containing a gene switch.
Each element of the gene switch was on a separate plasmid. Receptor expression was under the control of a CMV promoter (SEQ ID NO: 15). Induction was evaluated by the amount of reporter protein expressed in the presence of ligand.
SEAP expression in serum of mice was evaluated after electroporation of the gene switch into mouse quadriceps. Mice were anesthetized with 2 μL/g of a mixture of ketamine (100 mg/mL) and xylazine (20 mg/mL). Animals were then shaved, DNA vectors injected into the muscle in a volume of 2×50 μL polyglutamic acid (12 mg/mL water), electrode conductivity gel applied, and an electrode caliber (1 cm×1 cm; model 384) was placed on hind leg. The muscle was electroporated with 200 V/cm, 8 times, for 20 msec/pulse, at 1 sec time intervals. The transverse electrical field direction was reversed after the animals received half of the pulses. Electroporation was performed with an ECM 830 electroporator from BTX Molecular Delivery Systems.
In some experiments mice received an intraperitoneal injection (IP) of 2.6 μmol of ligand in 50 μL of DMSO 3 days after electroporation of the gene switch. In other experiments the concentration of ligand was decrease to 26 nmol/50 μL of DMSO/mouse. SEAP expression was evaluated 2-11 days after ligand administration. In other experiments ligand was administered in rodent chow. The chow was prepared by dissolving 2 g of ligand in 20 mL of acetone and adding it to 1 kg of LabDiet 5010 autoclavable chow from Purina Mills. This was thoroughly mixed in a Hobart mixer and then mixed for an additional 15 min in a Cross Blend mixer. Animals received chow ad libitum for 1, 2, or 3 days. All values are the average from four animals. Background SEAP in sera from animals treated with vector alone without ligand addition was 0-11 ng/mL serum.
Mouse serum was obtained by centrifugation of blood acquired by retroorbital bleeding with a small glass capillary tube. SEAP quantification was determined using a Clontech Great Escape chemiluminescence kit and by comparison with the Clontech SEAP standard.
Table 9: In vivo evaluation of ligand-mediated induction of a mutated ecdysone receptor-based gene switch. SEAP expression in serum of mice was evaluated after electroporation of the gene expression cassettes into mouse quadriceps. Mice received an IP injection of 2.6 μmol of ligand 3 days after electroporation. SEAP expression was evaluated 2-11 days after ligand administration. Each dose group was composed of four animals. Percentage of GS™-E ligand induction was determined by averaging SEAP expression from four animals divided by the average SEAP expression induced with GS™-E ligand and then multiplying by 100.
Table 10: Induction of gene switch expression with low concentrations of ligand. SEAP expression in serum of mice was evaluated after electroporation of the gene expression cassettes into mouse quadriceps. Mice received an IP injection of 26 nmol of ligand or 130 nmol GS™-E ligand 3 days after electroporation. SEAP expression was evaluated 2-7 days after ligand administration. Values are the average from 4 animals.

SMILES | Secreted Alkaline Phosphatase (percentage of GS ™-E ligand induction) Day 2 | Secreted Alkaline Phosphatase (percentage of GS ™-E ligand induction) Day 3 | Secreted Alkaline Phosphatase (percentage of GS ™-E ligand induction) Day 11 | Secreted Alkaline Phosphatase Day 2 | Secreted Alkaline Phosphatase Day 3 | Secreted Alkaline Phosphatase Day 7 [ng/ml mouse sera]
COc1cccc(C(=O)NN(C(=O)c2cc(Cl)c(F)c(Cl)c2)C(C)(C)C)c1C [RG-101382, N-(3-methoxy-2-methylbenzoyl)-N′-(3,5-dichloro-4-fluorobenzoyl)-N′-tert-butylhydrazine] | 92 percentage of GS ™-E ligand induction | 81 percentage of GS ™-E ligand induction | 890 percentage of GS ™-E ligand induction | – | – | –
CCc1c(C(=O)NN(C(=O)c2cc(C)cc(Cl)c2)C(C)(C)C)ccc2c1OCCO2 [RG-101494, N-(5-ethyl-1,4-benzodioxan-6-carbonyl)-N′-(tert-butyl)-N′-(3-chloro-5-methylbenzoyl)hydrazine] | 136 percentage of GS ™-E ligand induction | 138 percentage of GS ™-E ligand induction | – | – | – | –
COc1cc(C(=O)N(NC(=O)c2ccc3c(c2C)OCCO3)C(C)(C)C#N)cc(OC)c1C [RG-115092, N-(5-methyl-1,4-benzodioxan-6-carbonyl)-N′-(2-cyano-2-propyl)-N′-(3,5-dimethoxy-4-methylbenzoyl)hydrazine] | 8 percentage of GS ™-E ligand induction | 2 percentage of GS ™-E ligand induction | – | – | – | –
CCc1c(OC)cccc1C(=O)NN(C(=O)c1cc(C)cc(C=NNC(=O)C(N)=O)c1)C(C)(C)C [RG-115613, oxamic hydrazone of N-(3-formyl-5-methyl-benzoyl)-N-tert-butyl-N′-(2-ethyl-3-methoxy-benzoyl) hydrazide] | 2 percentage of GS ™-E ligand induction | 1 percentage of GS ™-E ligand induction | – | – | – | –
CCC(N(NC(=O)c1cccc(OC)c1C)C(=O)c1cc(C)cc(C)c1)C(C)(C)C (stereo not drawn) [RG-115819, 3,5-dimethyl-benzoic acid N-(1-ethyl-2,2-dimethyl-propyl)-N′-(3-methoxy-2-methyl-benzoyl)-hydrazide] | 172 percentage of GS ™-E ligand induction | 215 percentage of GS ™-E ligand induction | 3,008 percentage of GS ™-E ligand induction | 5,984 ng/ml mouse sera | 4,096 ng/ml mouse sera | 453
CCC(N(NC(=O)c1cccc(OC)c1C)C(=O)c1cc(OC)c(C)c(OC)c1)C(C)(C)C (stereo not drawn) [RG-115820, 3,5-dimethoxy-4-methyl-benzoic acid N-(1-ethyl-2,2-dimethyl-propyl)-N′-(3-methoxy-2-methyl-benzoyl)-hydrazide] | 82 percentage of GS ™-E ligand induction | 63 percentage of GS ™-E ligand induction | 399 percentage of GS ™-E ligand induction | – | – | –
CCCC(N(NC(=O)c1cccc(OC)c1C)C(=O)c1cc(OC)c(C)c(OC)c1)C(C)(C)C (stereo not drawn) [RG-115824] | 102 percentage of GS ™-E ligand induction | 101 percentage of GS ™-E ligand induction | 415 percentage of GS ™-E ligand induction | – | – | –
CCCC(N(NC(=O)c1cccc(OC)c1CC)C(=O)c1cc(OC)c(C)c(OC)c1)C(C)(C)C (stereo not drawn) [RG-115829, 3,5-Dimethoxy-4-methyl-benzoic acid N-(1-tert-butyl-butyl)-N′-(2-ethyl-3-methoxy-benzoyl)-hydrazide] | 72 percentage of GS ™-E ligand induction | 83 percentage of GS ™-E ligand induction | 687 percentage of GS ™-E ligand induction | – | – | –
CCCC(N(NC(=O)c1cccc(OC)c1CC)C(=O)c1cc(C)cc(C)c1)C(C)(C)C (stereo not drawn) [RG-115830] | 120 percentage of GS ™-E ligand induction | 158 percentage of GS ™-E ligand induction | 3,558 percentage of GS ™-E ligand induction | 6,835 ng/ml mouse sera | 5,339 ng/ml mouse sera | 590
CCc1c(OC)cccc1C(=O)NN(C(=O)c1cc(OC)c(C)c(OC)c1)C(CC)C(C)(C)C (stereo not drawn) [RG-115831] | 118 percentage of GS ™-E ligand induction | 121 percentage of GS ™-E ligand induction | 105 percentage of GS ™-E ligand induction | – | – | –
CCc1c(OC)cccc1C(=O)NN(C(=O)c1cc(C)cc(C)c1)C(CC)C(C)(C)C (stereo not drawn) [RG-115832] | 147 percentage of GS ™-E ligand induction | 189 percentage of GS ™-E ligand induction | 4,183 percentage of GS ™-E ligand induction | 2,349 ng/ml mouse sera | 1,807 ng/ml mouse sera | 149
